# According to patent US6465466B1, “Uses of indolo-2 [2,3b] -quinoxalines” (priority 1995, dated 2002):
# Experiments:
# [1] = tested on: regeneration of liver tissue; experiment: In vivo toxicity: liver regeneration after partial hepatectomy (liver-somatic index); parameters: species or system rats
# Description: The in vivo toxicity of B-220 was tested in rats. A portion of the liver was removed (partial hepatectomy, PH) by surgery and the regeneration of liver tissue was studied. The regeneration was measured as liver-somatic index (LSI), in other words, the relative liver weight in percent of the body weight.
# AAF (2-acetylaminofluorene) is a very toxic substance which acts as a mito-inhibitor, i.e. inhibits cell division of normal liver cells.
# The results are shown in FIG. 3 wherein LSI is plotted against days after partial hepatectomy.
# bacterial strain TA 100 = experiment: Ames test, mutagenicity of MMS and EMS with and without B-220; format: cell-based, Salmonella; details: for mutagenicity of the mutagen alone (revertants/plate): TA 100, without B-220
# Description: The following example illustrates the fact that compound B-220 reduces the mutagenicity of potent mutagens in the bacterial mutagenicity test, the “Ames test”. In the test the bacterial strain TA 100 was used. […] These mutagens were MMS=Methylmethanesulphonate and EMS=Ethylmethanesulphonate. The results of the experiments carried out are shown graphically in FIGS. 2a and 2b. In the Figures revertants/plate, is plotted against microgram MMS and EMS, respectively, plus 70 μg B-220.
# test strain TA100 = experiment: Ames test, mutagenic potential of the substances, test strain TA100; format: cell-based, Salmonella; details: for anti-mutagenic potential (reduction of spontaneous background): TA100; for mutagenic potential (revertants/plate): TA100, with and without S9
# Source text: This example illustrates the mutagenic potential in the bacterial mutagenicity test, “Ames test”, with test strain TA100, of B-220 (FIG. 1a) and 9-OH-B-220 (FIG. 1b). S9 indicates the presence […] or absence (−S9) of a cellular enzymatic fraction capable to metabolize the tested substances. The metabolic activation is a liver fraction containing enzymes needed in metabolism. In the Figures revertants/plate, an intensity measurement of mutagenic activity, is plotted against μg B-220 and μg 9-OH-B-220.
# skin tumors = experiment: Skin tumor model, DMBA initiation and TPA promotion; format: in vivo, mice
# Description: The compounds used according to the present invention have been tested as regards the formation of tumors (skin tumors) for mice subjected to strong tumor initiating and strong tumor promotion conditions. […] Furthermore, if the administration of the compound used according to the present invention is terminated, the animals will develop the same number of tumors as in the positive control. This means that the original DNA injury remains and the tumor promoter which is administered continuously can give rise to a considerable development of tumors. Accordingly a compound used according to the present invention can stop the tumor process caused by potent tumor promoting agents in combination with potent tumor initiators.
# This example illustrates a tumor model which is based on in vivo tumor initiation with one does of dimethylbenzanthracene (DMBA) where after, a potent tumor promoter […] (TPA) was administered twice a week. After a number of weeks the skin tumors can be detected and followed during the study, After approximately 100 days (A) the positive controls reached the maximum, where after the total number declines due to the behavior of the animals. […] After six months exposure of B-220+TPA in the B-220 group, B-220 was no longer administered (B).
# [2] = tested on: 8-hydroxy-2'-deoxyguanosine (8-OH-dG); experiment: 8-OH-dG formation in DNA after oral 2,7-dinitrofluorene; format: in vivo; details: rats pre-treated with B220, 2,7-dNF orally
# Source text: Oxidation of deoxyguanosine (dG), one of the bases in DNA, is an oxidative lesion of DNA related to oxidative stress. The reaction product between free radicals and dG is 8-hydroxy-2′-deoxyguanosine (8-OH-dG). This biomarker is a reaction product found in DNA, i.e. the oxidative stress is not only found as oxidants in the circulation or in the cytoplasm, but reaches the nucleus and reacts with DNA. In FIG. 8 results are shown when the urban air pollutant (result of incomplete combustion of fuels of vehicles) and carcinogen 2,7-dinitrofluorene (2,7-dNF) was administered orally to rats. In the metabolism, reactive intermediates were formed that oxidized dG to 8-OH-dG.
# [3] = Whole body gamma-irradiation of mice; format: in vivo
# Description: Gamma-irradiation is a very potent agent which can induce oxidative stress, reduce body weight gain and shorten life span. In FIG. […] The human LD50 of gamma-irradiation os approximately 3 Gy.
# “B220” was administered intra peritoneal in corn oil 24 and 3 h before the irradiation.
# The body weight gain of each group is shown as percent of the body weight at the time of irradiation. A lower body weight gain is an indicator of a shorter life span in the long term perspective. Gamma-irradiation is a way to induce a premature aging which is also seen as gray fur in these mice.
# [4] = tested on: human cell cultures of phagocytes; experiment: Luminol chemiluminescence in human phagocyte cultures; format: cell-based; details: dose dependent; intracellular, also seen extracellular; same effect as salt and free base
# Source text: In this test the effects of “B220” have been exposed to human cell cultures of phagocytes. Luminol reacts with the markers for oxidative stress, hydrogen peroxide or the superoxide ion, and generates light. […] “B220” has the same effect both in the form of salt and the free base.
smiles,measurement,setting,value
CN(C)CCn1c2ccc(O)cc2c2nc3ccccc3nc21,melting point,,269 to 270 °C
"CC(=O)Nc1ccc2c(c1)Cc1ccccc1-2 [AAF, 2-acetylaminofluorene, reference compound]","regeneration of liver tissue (liver-somatic index, LSI)","[1]; rats, days after partial hepatectomy",very slow
"CCOS(C)(=O)=O [EMS, Ethylmethanesulphonate, reference compound]",mutagenicity of the mutagen alone (revertants/plate),bacterial strain TA 100,strong mutagen
"Cc1cc2nc3c4cc(O)ccc4n(CCN(C)C)c3nc2cc1C [Example 9-OH-B-220, 2,3-Dimethyl-6-(2-dimethylaminoethyl)-9-hydroxy-6H-indolo[2,3-b]-quinoxaline]",anti-mutagenic potential (reduction of spontaneous background),test strain TA100,anti-mutagenic
same,mutagenic potential (revertants/plate),test strain TA100,non-mutagenic
Cc1cc2nc3c4ccccc4n(CCN(C)C)c3nc2cc1C [Example B-220],"regeneration of liver tissue (liver-somatic index, LSI)","[1]; rat, in vivo",no difference from the controls
same,toxic effects in vivo,"[1]; rat, in vivo",did not show any toxic effects
same,mutagenicity of EMS when B-220 is added,"bacterial strain TA 100; TA 100, EMS plus 70 μg B-220",reduced the mutagenicity but not as much as for MMS
same,mutagenicity of MMS when B-220 is added,"bacterial strain TA 100; TA 100, MMS plus 70 μg B-220",the mutagenicity disappears
same,skin tumors,skin tumors; after six months of B-220+TPA,very slight increase in tumors
same,skin tumors after B-220 no longer administered,"skin tumors; after six months, TPA continued, B-220 stopped",rapid increase of tumors
same,skin tumors,"skin tumors; approximately 100 days, B-220 one hour before TPA, DMBA-initiated",no tumors at all
same,carcinogenicity,skin tumors; skin tumor model,not a carcinogen
same,oxidative stress (8-OH-dG in DNA),[2],down-regulated to levels lower than the controls
same,protective effect (life span),"[3]; 8 Gy, administration after irradiation",protective effect similar to pre-treatment
same,protective effect (increased life span),"[3]; 8 Gy, intra peritoneal in corn oil 24 and 3 h before irradiation",protective effect
same,protective effect (life span),"[3]; 14 Gy, intra peritoneal in corn oil 24 and 3 h before irradiation",no protective effect
same,body weight gain,"[3]; lower doses, 1 and 6 Gy",increased body weight gain
same,anti-mutagenic potential (reduction of spontaneous background),test strain TA100,anti-mutagenic
same,mutagenic potential (revertants/plate),test strain TA100,non-mutagenic
same,formation of hydrogen peroxide and superoxide ion generated by oxidase (chemiluminescence),[4],down regulates and even eliminates
"COS(C)(=O)=O [MMS, Methylmethanesulphonate, reference compound]",mutagenicity of the mutagen alone (revertants/plate),bacterial strain TA 100,strong mutagen
